The text below walks through data of patent US20120010075A1 (priority 2009, published 2012).

Read-outs that look alike come from different tables or passages of the source.

The subject of data set [1] is Leptosphaeria nodorum (LEPTNO). Kind of data set: In vitro fungitoxicity of hydrazones with and without copper towards Leptosphaeria nodorum (Example 26). Format: cell-based. The note with it: 72 h at 25° C.; for inhibition of growth at 0.05 µg/mL: Parastagonospora nodorum, 72 h, copper-minus medium, read-out: LEPTNO % Inhn. Minus Copper Observed.
Data set [2] has as its system Phytophthora infestans. The class given is in vivo, Phytophthora infestans on tomato. The note with it: applied 24 h before inoculation, assessed 7 days after inoculation.
Setting [3] is: test compound Concn. 0.05 μg/mL.
Where [4] appears, read: copper-plus medium (CuCl2 10 μM), test compound Concn. 0.05 μg/mL.
Setting [5] is: hydrazone 50 ppm with 50 μM CuCl2.2H2O, tomato late blight.
The mark [6] stands for this setting: compound 0.05 μg/mL, copper-plus medium (CuCl2.2H2O).
Setting [7] is: hydrazone 50 ppm + 50 μM CuCl2.2H2O, tomato.

With `N#Cc1cccc(C(=O)N/N=C/c2cc(Cl)cc(Cl)c2O)c1` [Example 309], the melting point fell in the range of 252 to 271 °C. Moreover, the inhibition of growth at 0.05 µg/mL in data set [1] (setting [3]) was found to be 5.5%. Further, the “LEPTNO % Inhn. Plus Copper Observed” value in data set [1] (setting [4]) was 97.4%. For the same compound, the “TLB % Control” value in data set [2] (setting [5]) turned out to be 74.0%.
Compound `O=C(N/N=C/c1cc(Cl)cc(Br)c1O)c1cccc(F)c1` [Example 414] showed a melting point of 209 to 215 °C. The inhibition of growth at 0.05 µg/mL in data set [1] (setting [3]) amounted to 14.6%. Besides, the “LEPTNO % Inhn. Plus Copper Observed” value in data set [1] (setting [4]) is reported as 97.9%. Also, the “TLB % Control” value in data set [2] (setting [5]) turned out to be 90.0%.
`Cc1cc(C)cc(C(=O)N/N=C/c2cc(Cl)cc(Br)c2O)c1` [Example 168]: the melting point fell in the range of 223 to 226 °C. Besides, the inhibition of growth at 0.05 µg/mL in data set [1] (compound 0.05 μg/mL) came to 13.3%. Further, the “LEPTNO % Inhn. Plus Copper Observed” value in data set [1] (setting [6]) turned out to be 97.7%. Further, the “TLB % Control” value in data set [2] (setting [7]) came out at 59.6%.
For `O=C(N/N=C/c1cc(Cl)cc(Br)c1O)c1ccc(C(F)(F)F)cc1` [Example 164], in that order: 250 to 251 °C, 10.8%, 98.6% and 96.5%.
`O=C(N/N=C/c1cc(Br)ccc1O)c1cc(Cl)ccc1Cl` [Example 186]: the melting point lay within 196 to 202 °C. Besides, the inhibition of growth at 0.05 µg/mL in data set [1] (compound 0.05 μg/mL) is 0%. For the same compound, in data set [1] (setting [6]), the “LEPTNO % Inhn. Plus Copper Observed” value was determined as 97.6%. Besides, the “TLB % Control” value in data set [2] (setting [7]) was determined as 61.8%.
For `Cc1cc(C)cc(C(=O)N/N=C/c2cc([N+](=O)[O-])cc(Br)c2O)c1` [Example 208], in that order: 283 to 300 °C, 5.4%, 97.0% and 32.8%.
`C/C(=N\NC(=O)c1ccccc1O)c1cc(Cl)cc(Cl)c1O` [Example 471]: the melting point was in the range of 306 to 308 °C. Further, in data set [1] (setting [3]), the inhibition of growth at 0.05 µg/mL turned out to be 7.9%. The “LEPTNO % Inhn. Plus Copper Observed” value in data set [1] (setting [4]) turned out to be 97.8%. For the same compound, in data set [2] (setting [5]), the “TLB % Control” value amounted to 83.0%.
For `COc1cccc(/C(C)=N/NC(=O)c2ccccc2O)c1O` [Example 468], in that order: 255 to 257 °C, 6.2%, 98.1% and 92.0%.
The matching figures for `O=C(N/N=C/c1cc(C(F)(F)F)ccc1O)c1ccccc1C(F)(F)F` [Example 444]: 174 to 176 °C, 0%, 100.0% and 91.0%.
`O=C(N/N=C/c1c(O)cccc1F)c1ccccc1` [Example 245] gave a melting point of 216 to 218 °C. Besides, the inhibition of growth at 0.05 µg/mL in data set [1] (compound 0.05 μg/mL) was determined as 0%. Further, the “LEPTNO % Inhn. Plus Copper Observed” value in data set [1] (setting [6]) amounted to 96.7%. In addition, in data set [2] (setting [7]), the “TLB % Control” value is listed as 52.7%.
Consider `COc1ccc(C(=O)N/N=C(\C)c2c(O)cc(OC)cc2OC)cc1` [Example 569], for which the melting point fell in the range of 143 to 146 °C. The inhibition of growth at 0.05 µg/mL in data set [1] (setting [3]) was 6.1%. In addition, the “LEPTNO % Inhn. Plus Copper Observed” value in data set [1] (setting [4]) was found to be 15.8%. Also, the “TLB % Control” value in data set [2] (setting [5]) came to 70.0%.
Compound `O=C(N/N=C/c1c(O)cccc1C(F)(F)F)c1ccccc1` [Example 297] registered a melting point of 228 to 230 °C. For the same compound, the inhibition of growth at 0.05 µg/mL in data set [1] (setting [3]) was 0%. In data set [1] (setting [4]), the “LEPTNO % Inhn. Plus Copper Observed” value was determined as 96.4%. In data set [2] (setting [5]), the “TLB % Control” value is listed as 69.5%.
The matching figures for `O=C(N/N=C/c1c(C(F)(F)F)ccc(Cl)c1O)c1cccc(Cl)c1` [Example 451]: 242 to 245 °C, 4.6%, 100.0% and 100.0%.
Regarding `COc1ccc(O)c(/C(C)=N/NC(=O)c2ccccc2Cl)c1` [Example 265], the melting point lay in the range of 170 to 184 °C. The inhibition of growth at 0.05 µg/mL in data set [1] (compound 0.05 μg/mL) is 0%. Besides, in data set [1] (setting [6]), the “LEPTNO % Inhn. Plus Copper Observed” value is on record as 98.1%. For the same compound, the “TLB % Control” value in data set [2] (setting [7]) is given as 15.0%.
Turning to `COc1cccc(C(=O)N/N=C/c2cc(Br)cc(Br)c2O)c1C` [Example 108], the melting point lay within 188 to 189 °C. In data set [1] (compound 0.05 μg/mL), the inhibition of growth at 0.05 µg/mL was 21.3%. The “LEPTNO % Inhn. Plus Copper Observed” value in data set [1] (setting [6]) was 97.6%. Also, in data set [2] (setting [7]), the “TLB % Control” value was determined as 50.9%.
With `C/C(=N\NC(=O)c1cccc(Cl)c1)c1cc(C(F)(F)F)ccc1O` [Example 532], the melting point lay in the range of 241 to 245 °C. Also, in data set [1] (setting [3]), the inhibition of growth at 0.05 µg/mL is 4.9%. Also, in data set [1] (setting [4]), the “LEPTNO % Inhn. Plus Copper Observed” value is reported as 91.4%. Moreover, in data set [2] (setting [5]), the “TLB % Control” value turned out to be 56.0%.
With `C/C(=N\NC(=O)c1ccccc1Cl)c1cc(C(F)(F)F)ccc1O` [Example 531], the melting point lay in the range of 189 to 191 °C. Also, the inhibition of growth at 0.05 µg/mL in data set [1] (setting [3]) was 0%. In data set [1] (setting [4]), the “LEPTNO % Inhn. Plus Copper Observed” value was 97.3%. The “TLB % Control” value in data set [2] (setting [5]) came to 80.0%.
`COc1ccc(O)c(/C(C)=N/NC(=O)c2ccc(Cl)cc2)c1` [Example 267] displayed a melting point of 193 to 196 °C. In data set [1] (compound 0.05 μg/mL), the inhibition of growth at 0.05 µg/mL turned out to be 5.7%. Also, in data set [1] (setting [6]), the “LEPTNO % Inhn. Plus Copper Observed” value is on record as 98.3%. In addition, in data set [2] (setting [7]), the “TLB % Control” value is 33.0%.
Consider `C/C(=N\NC(=O)c1ccc(C(F)(F)F)cc1)c1cc(Cl)ccc1O` [Example 513], for which the melting point fell in the range of 271 to 273 °C. For the same compound, the inhibition of growth at 0.05 µg/mL in data set [1] (setting [3]) was 14%. Besides, in data set [1] (setting [4]), the “LEPTNO % Inhn. Plus Copper Observed” value was 98.0%. The “TLB % Control” value in data set [2] (setting [5]) worked out at 53.0%.
Turning to `Cc1ccc(C(=O)N/N=C(\CCc2ccccc2)c2ccccc2O)c(C)c1` [Example 31], the melting point lay within 143 to 145 °C. In data set [1] (compound 0.05 μg/mL), the inhibition of growth at 0.05 µg/mL was found to be 2.2%. In data set [1] (setting [6]), the “LEPTNO % Inhn. Plus Copper Observed” value was 89.0%. Also, the “TLB % Control” value in data set [2] (setting [7]) came to 33.3%.
`C/C(=N\NC(=O)c1ccc(C(F)(F)F)cc1)c1ccc(Cl)cc1O` [Example 461] yielded a melting point of 244 to 245 °C. In addition, the inhibition of growth at 0.05 µg/mL in data set [1] (setting [3]) came to 3.4%. For the same compound, in data set [1] (setting [4]), the “LEPTNO % Inhn. Plus Copper Observed” value was 96.7%. Further, the “TLB % Control” value in data set [2] (setting [5]) is listed as 54.0%.
As to `O=C(N/N=C/c1cc(Cl)cc(Cl)c1O)c1ccc2ccccc2c1` [Example 92], the melting point fell in the range of 215 to 217 °C. Moreover, in data set [1] (compound 0.05 μg/mL), the inhibition of growth at 0.05 µg/mL is 1.9%. Further, the “LEPTNO % Inhn. Plus Copper Observed” value in data set [1] (setting [6]) stood at 98.2%. Also, the “TLB % Control” value in data set [2] (setting [7]) was 71.9%.
For `O=C(N/N=C/c1cc(Cl)cc(C(F)(F)F)c1O)c1ccc([N+](=O)[O-])cc1` [Example 383], the melting point was 245 to 247 °C. Moreover, the inhibition of growth at 0.05 µg/mL in data set [1] (setting [3]) came to 20.3%. In addition, the “LEPTNO % Inhn. Plus Copper Observed” value in data set [1] (setting [4]) stood at 95.7%. Further, in data set [2] (setting [5]), the “TLB % Control” value is given as 100.0%.
The matching figures for `C/C(=N\NC(=O)c1cccc(Cl)c1)c1cccc(Cl)c1O` [Example 497]: 197 to 219 °C, 0%, 98.1% and 75.0%.
`C/C(=N\NC(=O)c1cccc(Cl)c1)c1cccc([N+](=O)[O-])c1O` [Example 273] gave a melting point of 251 to 286 °C. The inhibition of growth at 0.05 µg/mL in data set [1] (compound 0.05 μg/mL) was found to be 0.4%. Further, in data set [1] (setting [6]), the “LEPTNO % Inhn. Plus Copper Observed” value is reported as 97.7%. The “TLB % Control” value in data set [2] (setting [7]) worked out at 44.0%.
`C/C(=N\NC(=O)c1ccccc1)c1cc(C)ccc1O` [Example 311] yielded a melting point of 197 to 199 °C. Moreover, in data set [1] (setting [3]), the inhibition of growth at 0.05 µg/mL stood at 3.3%. The “LEPTNO % Inhn. Plus Copper Observed” value in data set [1] (setting [4]) amounted to 98.3%. In addition, the “TLB % Control” value in data set [2] (setting [5]) was found to be 37.0%.
In turn, `Cc1ccc(C(=O)N/N=C/c2cc(C(F)(F)F)cc(C(F)(F)F)c2O)c(O)c1` [Example 342] had a melting point of 251 to 254 °C. In data set [1] (setting [3]), the inhibition of growth at 0.05 µg/mL stood at 9.1%. Moreover, in data set [1] (setting [4]), the “LEPTNO % Inhn. Plus Copper Observed” value is recorded as 98.3%. The “TLB % Control” value in data set [2] (setting [5]) is reported as 86.0%.
Take `Cc1ccc(C(=O)N/N=C/c2cc(Cl)cc(Cl)c2O)c(C)c1` [Example 27]: the melting point was in the range of 246 to 247 °C. Besides, in data set [1] (compound 0.05 μg/mL), the inhibition of growth at 0.05 µg/mL was 16.5%. Besides, the “LEPTNO % Inhn. Plus Copper Observed” value in data set [1] (setting [6]) was found to be 97.9%. Further, the “TLB % Control” value in data set [2] (setting [7]) is given as 43.3%.
Turning to `C/C(=N\NC(=O)c1ccccc1Br)c1cc(Br)ccc1O` [Example 519], the melting point fell in the range of 216 to 218 °C. The inhibition of growth at 0.05 µg/mL in data set [1] (setting [3]) was 9.1%. Moreover, in data set [1] (setting [4]), the “LEPTNO % Inhn. Plus Copper Observed” value is 95.7%. For the same compound, the “TLB % Control” value in data set [2] (setting [5]) was found to be 88.0%.
For `C/C(=N\NC(=O)c1ccccc1Br)c1cc(C(F)(F)F)ccc1O` [Example 537], in that order: 192 to 200 °C, 12.2%, 96.2% and 90.0%.
The matching figures for `O=C(N/N=C/c1cc(Cl)cc(C(F)(F)F)c1O)c1cccc([N+](=O)[O-])c1` [Example 382]: 235 to 237 °C, 19.3%, 98.5% and 96.0%.
Regarding `COc1ccc(Br)c(/C=N/NC(=O)c2ccccc2)c1O` [Example 243], the melting point is 187 to 189 °C. Besides, in data set [1] (compound 0.05 μg/mL), the inhibition of growth at 0.05 µg/mL turned out to be 5.3%. In data set [1] (setting [6]), the “LEPTNO % Inhn. Plus Copper Observed” value came to 96.7%. Moreover, in data set [2] (setting [7]), the “TLB % Control” value turned out to be 86.4%.
The matching figures for `O=C(N/N=C/c1ccc(C(F)(F)F)cc1O)c1ccccc1` [Example 294]: 215 to 217 °C, 1.7%, 94.2% and 72.9%.
